This note sets out measurements from PMC5282889 (Bioorganic & medicinal chemistry letters, 2016).

Molecules are shown by their SMILES.

The target in one test is AChE (Homo sapiens, UniProt P22303). The test can be described thus: biochemical. The following applies: read-out: AChE inhibition (%).
The target of the next test is BuChE (Homo sapiens, UniProt P06276). The test can be described thus: Ellman assay, BuChE inhibition. It counts as biochemical. The note with it: read-out: BuChE inhibition (%), tested at 10 μM concentration. For orientation: Ellman's reagent forms a yellow product with free thiols.
The target in a further test is Aβ (Homo sapiens, UniProt P05067). The test can be described thus: Aβ fibrillogenesis, Thioflavin-T. The following applies: for Aβ fibril inhibition (%): Aβ:inhibitor = 1:1 ratio at 100 μM Aβ concentration. In kind it is biochemical.
For a further test, the target named is Aβ-peptide (Homo sapiens, UniProt P05067). The test can be described thus: High resolution mass spectrometry of inhibitor-Aβ complex formation. It counts as binding. The note with it: Aβ-peptide-14 mixture (30 μM to 150 μM); 1:1 and 1:2 complexes observed.
Aβ-peptide, sequence (P05067 672-711 limits assumed): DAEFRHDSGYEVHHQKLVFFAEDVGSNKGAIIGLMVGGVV

Aβ, sequence (P05067 672-711 limits assumed): as above
AChE, sequence (P22303 32-614): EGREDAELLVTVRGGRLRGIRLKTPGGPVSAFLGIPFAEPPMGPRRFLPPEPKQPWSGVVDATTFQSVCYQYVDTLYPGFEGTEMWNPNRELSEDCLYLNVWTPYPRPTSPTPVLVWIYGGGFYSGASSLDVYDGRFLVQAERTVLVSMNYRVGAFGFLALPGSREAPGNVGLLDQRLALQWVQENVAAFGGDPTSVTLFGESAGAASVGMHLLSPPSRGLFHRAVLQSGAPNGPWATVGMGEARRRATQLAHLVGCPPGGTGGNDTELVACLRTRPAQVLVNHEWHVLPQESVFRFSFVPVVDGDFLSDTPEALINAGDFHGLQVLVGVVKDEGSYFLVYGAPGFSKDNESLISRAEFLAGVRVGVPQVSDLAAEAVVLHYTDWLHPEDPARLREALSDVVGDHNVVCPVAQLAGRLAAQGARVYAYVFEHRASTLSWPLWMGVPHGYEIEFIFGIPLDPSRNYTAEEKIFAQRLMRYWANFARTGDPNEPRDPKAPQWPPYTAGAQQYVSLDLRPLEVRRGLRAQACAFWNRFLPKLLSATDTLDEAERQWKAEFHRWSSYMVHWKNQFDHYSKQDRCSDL
BuChE, sequence (P06276 29-602): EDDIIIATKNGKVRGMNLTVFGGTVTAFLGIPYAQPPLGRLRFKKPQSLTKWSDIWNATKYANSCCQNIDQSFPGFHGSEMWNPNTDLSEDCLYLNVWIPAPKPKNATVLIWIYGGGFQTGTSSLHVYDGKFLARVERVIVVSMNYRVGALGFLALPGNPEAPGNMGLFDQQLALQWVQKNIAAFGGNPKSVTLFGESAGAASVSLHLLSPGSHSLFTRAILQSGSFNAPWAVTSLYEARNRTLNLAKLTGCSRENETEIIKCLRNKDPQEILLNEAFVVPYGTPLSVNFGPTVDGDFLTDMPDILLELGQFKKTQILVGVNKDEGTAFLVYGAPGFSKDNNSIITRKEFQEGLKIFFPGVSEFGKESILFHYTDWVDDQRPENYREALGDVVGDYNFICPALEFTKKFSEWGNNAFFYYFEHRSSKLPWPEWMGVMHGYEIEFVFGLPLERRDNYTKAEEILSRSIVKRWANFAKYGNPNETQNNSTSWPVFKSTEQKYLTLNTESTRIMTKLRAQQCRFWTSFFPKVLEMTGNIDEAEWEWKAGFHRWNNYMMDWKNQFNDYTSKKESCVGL

Take `c1ccc(-c2nccc3c2[nH]c2ccccc23)cc1` [Compound 1]: the inhibition at 2 µM at AChE was -12%. For `COc1ccc2[nH]c3c(-c4ccc(C)cc4)nccc3c2c1` [Compound 4], the inhibition at 2 µM on AChE is -15%. `Fc1ccc(-c2nccc3c2[nH]c2ccccc23)cc1` [Compound 6]: the inhibition at 10 µM at BuChE is > 80%. Besides, at Aβ, the “Aβ fibril inhibition (%)” value came out at 39%. As to `c1ccc2c(c1)[nH]c1c(C3CCCCC3)nccc12` [Compound 13], on Aβ, the “Aβ fibril inhibition (%)” value is given as −12%. Usually EC50 stands for the concentration at which the effect is half-maximal. The low end stands for higher potency in that assay, the high end for lower potency in that assay. With `c1ccc2c(-c3nccc4c3[nH]c3ccccc34)cccc2c1` [Compound 14], the inhibition at 10 µM on BuChE is > 80%. The “Complex formation with Aβ peptide (HR-MS)” value on Aβ-peptide was “forms a complex with the peptide”. On Aβ, the EC50 was ~110 µM. Also, the inhibition at 2 µM at AChE is -11%.
